Columns and labels:
[1] = Phase 2 CSSSI study, safety and adverse events by patient; type: in vivo, human
Protocol: (§1) A randomized (1:1), controlled, evaluator-blinded Phase 2 study comparing 9-[(2,2-dimethyl-propyl amino)-methyl-minocycline (compound 1) and linezolid (Zyvox™) for the treatment of complicated skin and skin structure infections (CSSSI) was conducted. Patients with CSSSI who required initial intravenous (IV) therapy and met inclusion and exclusion criteria were enrolled at 11 centers in the US and were randomized to receive either compound 1 (100 mg Q24 h IV with 200 mg Q24 h oral step-down) or linezolid (600 mg Q12 h IV with 600 mg Q12 h oral step-down).
(§2) At each of the four structured evaluations, the blinded evaluator assessed the subject, with particular attention to scoring the findings at the primary site of infection and obtaining cultures. Clinical and microbiologic outcomes were determined using these assessments. Primary evaluation criteria was safety and tolerability compared with linezolid. Secondary evaluation criteria was efficacy of compound 1 compared to linezolid, as well as pharmacokinetics of compound 1.
In addition, the patients in the study were monitored for adverse events (AE). An adverse event is any untoward medical occurrence temporally associated with the use of a medical product in a subject, whether or not the event is considered causally related to the medical product.

[2] = system: complicated skin and skin structure infections (CSSSI); experiment: Phase 2 study in CSSSI, clinical outcome at test of cure; type: in vivo, human
Protocol: as §1
All subjects had four structured evaluations: at Enrollment (Baseline); at End of IV Treatment; at End of Treatment; and at 10 to 17 days after last dose of treatment (test of cure (TOC) evaluation). In addition, the blinded investigator saw each subject daily while they were on IV therapy and at least every 3 days while receiving oral treatment to determine whether to continue current treatment, switch from IV to oral therapy, or discontinue treatment.
as §2
At each scheduled evaluation, the blinded evaluator examined the primary site of infection; for patients with multiple non-contiguous areas of infection, the blinded evaluator identified the most severely affected portion at Enrollment and designated that as the primary site of infection. The following information was recorded for each patient: maximal linear dimension of area of continuous involvement of infection; maximal linear dimension of ulceration, if present; semi-qualitative (scale of 0 to 3; none, mild, marked, severe) description of infection for the following features: erythema, edema/induration, fluctuance, necrotic tissue, purulence (including drainage), and tenderness/pain. In addition, at the Enrollment Evaluation, the following were also recorded the anatomical location of the primary site of infection; and the clinical diagnosis of the type of the infection.
Both the investigational drug, compound 1, and the comparator drug, Zyvox™ were administered intravenously and orally. Patients randomized to linezolid may have received aztreonam IV for suspected or documented gram-negative infection. Subjects were initially treated with study drug IV and then switched to oral therapy. The expected duration of IV treatment was up to 7 days; the expected total duration of treatment (IV and oral) was up to 14 days.
For IV administration, the HCl salt of compound 1 for injection was given as 100 mg in 100 ml sterile saline infused over 30 minutes q24 h. For oral administration, compound 1 100 mg capsules were taken fasting as 2 capsules with 8 oz. water q24 h. No food was to be taken for 30 to 60 minutes after dosing and no dairy products for 4 hours.
Linezolid (Zyvox™) 600 mg tablets and pre-mixed 600 mg IV infusion solution (300 ml volume) were obtained from commercial sources. Linezolid 600 mg IV was administered as a 30 minute infusion.
Efficacy analyses were performed on several populations of subjects. Subjects were analyzed for efficacy according to randomization, regardless of treatment administered.
The Intent-to-Treat (ITT) population includes all enrolled subjects who received at least one dose of study medication.
The modified Intent-to-Treat (mITT) population comprises all subjects in the ITT population who have an Infecting Pathogen isolated at prior to administration of the study compound. […]

[3] = system: Enterococcus; experiment: Phase 2 CSSSI study, clinical outcome by organism: Enterococcus; type: in vivo; conditions: ME population
Protocol: as §1
An infecting pathogen was defined as an isolate derived from the last positive culture taken from the site of infection under study prior to and including day 1.

[4] = probably or possibly drug-related by blinded evaluator
[5] = clinically evaluable population
[6] = microbiologically evaluable population

CN(C)c1cc(CNCC(C)(C)C)c(O)c2c1C[C@H]1C[C@H]3[C@H](N(C)C)C(O)=C(C(N)=O)C(=O)[C@@]3(O)C(O)=C1C2=O [Compound 1, 9-[(2,2-dimethyl-propylamino)-methyl]-minocycline]
tolerability ([1]; 100 mg Q24 h IV with 200 mg Q24 h oral step-down): well tolerated
Adverse events by patient, Musculoskeletal, Drug Related ([1]; human, in vivo): 0
Adverse events by patient, Musculoskeletal, Total ([1]; human, in vivo): 8
GI events leading to discontinuation of therapy ([1]; human, in vivo): did not result in discontinuation of therapy
severity of GI events ([1]; observed almost entirely during oral therapy): mild
Adverse events by patient, Cardiac, Drug Related [1, 4]: 0
Adverse events by patient, Ear, Drug Related [1, 4]: 0
Adverse events by patient, Eye, Drug Related [1, 4]: 0
Adverse events by patient, GI, Drug Related [1, 4]: 12
Adverse events by patient, General, Drug Related [1, 4]: 5
Adverse events by patient, Heme, Drug Related [1, 4]: 0
Adverse events by patient, Infection, Drug Related [1, 4]: 0
Adverse events by patient, Injury, Drug Related [1, 4]: 0
Adverse events by patient, Investigations, Drug Related [1, 4]: 3
Adverse events by patient, Metabolism, Drug Related [1, 4]: 1
Adverse events by patient, Neurologic, Drug Related [1, 4]: 4
Adverse events by patient, Psych, Drug Related [1, 4]: 2
Adverse events by patient, Renal, Drug Related [1, 4]: 1
Adverse events by patient, Reproductive, Drug Related [1, 4]: 0
Adverse events by patient, Respiratory, Drug Related [1, 4]: 0
Adverse events by patient, Skin, Drug Related [1, 4]: 7
Adverse events by patient, Vascular, Drug Related [1, 4]: 0
Adverse events by patient, Cardiac, Total ([1]; safety population): 4
Adverse events by patient, Ear, Total ([1]; safety population): 0
Adverse events by patient, Eye, Total ([1]; safety population): 2
Adverse events by patient, GI, Total ([1]; safety population): 21
Adverse events by patient, General, Total ([1]; safety population): 11
Adverse events by patient, Heme, Total ([1]; safety population): 1
Adverse events by patient, Infection, Total ([1]; safety population): 6
Adverse events by patient, Injury, Total ([1]; safety population): 1
Adverse events by patient, Investigations, Total ([1]; safety population): 7
Adverse events by patient, Metabolism, Total ([1]; safety population): 9
Adverse events by patient, Neurologic, Total ([1]; safety population): 12
Adverse events by patient, Psych, Total ([1]; safety population): 5
Adverse events by patient, Renal, Total ([1]; safety population): 2
Adverse events by patient, Reproductive, Total ([1]; safety population): 2
Adverse events by patient, Respiratory, Total ([1]; safety population): 3
Adverse events by patient, Skin, Total ([1]; safety population): 12
Adverse events by patient, Vascular, Total ([1]; safety population): 3
Patients with no adverse event (None), % ([1]; safety population): 58.6%
Patients with no adverse event (None), number ([1]; safety population): 65
Total Patients with 1 or more AE, % ([1]; safety population): 41.4%
Total Patients with 1 or more AE, number ([1]; safety population): 56
Clinical Failure (% of subjects) ([2]; ITT population): (11.7%)
Clinical Failure (number of subjects) ([2]; ITT population): 13
Clinical Failure: Failure (% of subjects) ([2]; ITT population): (1.8%)
Clinical Failure: Failure (number of subjects) ([2]; ITT population): 2
Clinical Failure: Nonevaluable (% of subjects) ([2]; ITT population): (9.9%)
Clinical Failure: Nonevaluable (number of subjects) ([2]; ITT population): 11
Clinical Success (% of subjects) ([2]; ITT population): (88.3%)
Clinical Success (number of subjects) ([2]; ITT population): 98
Clinical Success (% of subjects) ([2]; ITT population, listed as compound 1): 88.3%
Clinical Failure (% of subjects) [2, 5]: 2.0%
Clinical Failure (number of subjects) [2, 5]: 2
Clinical Success (% of subjects) [2, 5]: 98.0%
Clinical Success (number of subjects) [2, 5]: 98
Clinical Success (% of subjects) ([2]; clinically evaluable population, listed as compound 1): 98%
Clinical Failure (% of subjects) ([2]; mITT population): (10.7%)
Clinical Failure (number of subjects) ([2]; mITT population): 9
Clinical Failure: Failure (% of subjects) ([2]; mITT population): (2.4%)
Clinical Failure: Failure (number of subjects) ([2]; mITT population): 2
Clinical Failure: Nonevaluable (% of subjects) ([2]; mITT population): (8.3%)
Clinical Failure: Nonevaluable (number of subjects) ([2]; mITT population): 7
Clinical Success (% of subjects) ([2]; mITT population): (89.3%)
Clinical Success (number of subjects) ([2]; mITT population): 75
Clinical Failure (% of subjects) [2, 6]: 2.6%
Clinical Failure (number of subjects) [2, 6]: 2
Clinical Success (% of subjects) [2, 6]: 97.4%
Clinical Success (number of subjects) [2, 6]: 75
Clinical outcome Failure (number) [3]: 1
Clinical outcome Success (number) [3]: 1
